The results in this text go back to US4795715A, “Aminoalkoxy or carboxyalkoxy derivatives of propranolol for immunoassay applications” (Drug Science Foundation, priority 1986, dated 1989).

The test system of the test is propranolol antiserum (produced in Example 1). Briefly: Specificity (cross-reactivity) of the antiserum of Example 1: inhibition of 3H propranolol-antibody complex formation (radioimmunoassay). The class given is binding, rabbit. The settings on record: for relative efficiency of the compound with respect to propranolol as an inhibitor (percentage): propranolol = 100 %; for ID50 (amount of compound giving 50% inhibition of 3H-propranolol binding to antiserum): dl-[4-3H]-propranolol tracer. The method, then:
Five New Zealand White rabbits were injected with an emulsion of the antigen as follows. For each animal, a solution was prepared consisting of 1 mg. of antigen dissolved in 0.8 ml. of 0.01M phosphate buffered saline at pH 7.4 and emulsified with 1.0 ml. of complete Freund's adjuvant. One hundred microliters of this emulsion was injected subcutaneously into each of the hind toe pads with the remainder divided between the hindquarters intramuscularly. One week later the animals were boosted with the same formulation, and additional boosts were administered at montly intervals thereafter. […] Bleedings were taken from the central ear artery seven to ten days after each boost, and weekly once the titre was sufficient. Blood was allowed to clot overnight at 4° C. and centrifuged to separate antiserum.
Radioactive dl-[4-^3 H]-propranolol with a specific activity of 21 C./mMol was obtained from the Radiochemical Center Amersham. This tritiated propranolol was diluted in the assay buffer just prior to use to obtain about 15000 cpm in 100 microliters of solution; 100 microliters of this preparation was added to each tube, including two background controls. The propranolol antiserum was diluted to 1:2000 in the buffer and 100 microliters of this solution was added to each tube with the exception of the background controls. The tubes were then vortexed, incubated at 37° C. for one hour, and cooled in an ice bath for 10 minutes prior to the addition of dextran-coated charcoal suspension.
Each tube was treated with one ml. of cold dextran-coated charcoal suspension and vortexed briefly, then incubated at 0° C. for 7-10 minutes prior to centrifugation at 5000 RPM in a refrigerated centriguge for 25 minutes. The supernatants were decanted into suitably labelled scintillation vials, dissolved in 10 ml. of counting cocktail and counted for 1-5 minutes. Counting cocktail was prepared by dissolving 40 g. of Omnifluor™ (purchased from New England Nuclear) and 2 liters of S-A-S Solubilizer™ (purchased from Research Products International Corp.) in 10 liters of toluene.

As for `CC(C)NCC(O)COc1cccc2ccccc12` (racemic) [Propranolol], the “relative efficiency of the compound with respect to propranolol as an inhibitor (percentage)” value was 100%.

Regarding `CC(C)NCC(O)COc1ccc(O)c2ccccc12` (stereo not drawn) [4-Hydroxy-Propranolol], the “cross reactivity with the antiserum (in words)” value is “significant cross reactivity” and the “relative efficiency of the compound with respect to propranolol as an inhibitor (percentage)” value worked out at 30%. `CC(C)NCC(O)COc1cccc2c(O)cccc12` (stereo not drawn) [5-Hydroxy-Propranolol]: the “cross reactivity with the antiserum (in words)” value is on record as “cross-react” and the “relative efficiency of the compound with respect to propranolol as an inhibitor (percentage)” value worked out at 90%.

With `NCC(O)COc1cccc2ccccc12` (stereo not drawn) [Ndesisopropyl Propranolol Amino], the “ID50 (amount of compound giving 50% inhibition of 3H-propranolol binding to antiserum)” value came to 780 ng and the “relative efficiency of the compound with respect to propranolol as an inhibitor (percentage)” value was 0.06%. For the compound `CC(C)NCC(COc1cccc2ccccc12)OC1OC(C(=O)O)C(O)C(O)C1O` (stereo not drawn) [Propranolol Glucuromide], the “ID50 (amount of compound giving 50% inhibition of 3H-propranolol binding to antiserum)” value is 700 ng and the “relative efficiency of the compound with respect to propranolol as an inhibitor (percentage)” value is 0.07%.
